Reference: patent US10660855B2 (priority 2019, dated 2020)

How the values were obtained:
[1] = Water-solubility / water-dispersing ability (FIG. 1); type: physicochemical; conditions: FIG. 1, dispersed in water, bottle A vs bottle B
[2] = cited from earlier work

Substance: Cannabidiol [CBD]
- water-dispersing ability [1]: insoluble in water
- half-life ([2]; in vivo): about 9 hours
- bioavailability when being used nasally (inhalantly) ([2]; nasal (inhalation)): about 31%
- bioavailability when being used orally ([2]; oral): 13-19%
